Consider 13 molecules from US10703748B2, “Diazanaphthalen-3-yl carboxamides and preparation and use thereof” (Samumed, LLC, priority 2017, dated 2020).

One assay concerns the target DYRK1A kinase (Homo sapiens, UniProt Q13627). In words: DYRK1A kinase activity (Ser/Thr 18 peptide Z-lyte FRET assay).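 Also: kinase activity read as coumarin/fluorescein emission ratio after development step, with unphosphorylated and phosphorylated peptide forms setting 0% and 100% controls, values from dose-response curves.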 The class given is biochemical. The conditions noted are these: recombinant DYRK1A, 30 μM ATP, one hour at room temperature.
In a further assay the target is GSK3β kinase (Homo sapiens, UniProt P49841). In words: GSK3β kinase activity (Ser/Thr 09 peptide Z-lyte FRET assay). Type of assay: biochemical. As to conditions: recombinant kinase, 46 μM ATP, one hour at room temperature; read-out: EC50.
In assay [1] the test system is secreted cytokines TNFα, IL-6 and KC-GRO. In words: Secreted cytokines in Lipopolysaccharide-stimulated BV-2 cells (Table 9 does not say which cytokine). Type of assay: cell-based, mouse. The conditions noted are these: read-out: EC50.
For assay [2], the system named is SW480 colon carcinoma cells. Description: Cell viability assay (CellTiter-Glo). The conditions noted are these: for inhibition at 10 µM: SW480, read-out: percent inhibition at 10 μM.
Assay [3] deals with Wnt-responsive Sp5-Luc reporter in SW480 colon carcinoma cells. In words: Screening assay for Wnt activity (Sp5-Luc reporter gene assay). The conditions noted are these: for inhibition at 10 µM: SW480, read-out: percent inhibition at 10 μM.
A further assay relates to IL-6. In words: IL-6 inhibition in LPS-stimulated human peripheral blood mononuclear cells (HTRF). As to conditions: Homo sapiens, PBMC; for EC50: 22 h; for inhibition at 10 µM: read-out: percentage in parentheses after EC50 >10.
In assay [4] the test system is α-smooth muscle actin (aSMA) positive LL29 cells. Description: Inhibition of the fibrotic process: αSMA staining in TGF-β1 treated LL29 fibroblasts from IPF patients. The conditions noted are these: for inhibition at 10 µM: read-out: percentage in parentheses after EC50 >10.

SMILES strings stand for the structures. Where two headings read alike, the source gives them in different places. A value given as a limit tells only on which side of the number the result lay.

GSK3β kinase, sequence (P49841 whole entry): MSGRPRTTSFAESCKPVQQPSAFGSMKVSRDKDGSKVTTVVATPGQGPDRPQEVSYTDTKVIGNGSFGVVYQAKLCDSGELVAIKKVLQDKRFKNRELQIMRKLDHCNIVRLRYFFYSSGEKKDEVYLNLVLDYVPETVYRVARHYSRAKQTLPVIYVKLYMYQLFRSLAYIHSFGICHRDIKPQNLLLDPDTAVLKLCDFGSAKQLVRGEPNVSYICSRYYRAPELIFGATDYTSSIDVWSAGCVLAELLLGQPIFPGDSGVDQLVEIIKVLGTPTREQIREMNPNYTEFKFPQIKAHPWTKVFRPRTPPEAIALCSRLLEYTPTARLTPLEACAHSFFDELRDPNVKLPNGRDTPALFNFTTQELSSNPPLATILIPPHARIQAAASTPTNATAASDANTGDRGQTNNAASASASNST

`CN1CCC(Oc2ccc(C(=O)Nc3cc4nc(-c5cnn(C)c5)ccc4cn3)cc2)CC1` [Compound 145, N-(2-(1-methyl-1H-pyrazol-4-yl)-1,6-naphthyridin-7-yl)-4-((1-methylpiperidin-4-yl)oxy)benzamide]: the EC50 on DYRK1A kinase is 0.005 µM; on GSK3β kinase, 2 µM; in assay [1] (Mus musculus, BV-2, 5 h), 0.212 µM; in assay [2] (Homo sapiens, SW480, 96 h), 0.535 µM; in assay [3] (Homo sapiens, SW480), 0.259 µM; in the assay on IL-6, 3.25 µM. Moreover, in assay [4] (Homo sapiens, Fibroblast, 96 h), the EC50 is 0.369 µM.

For `CN1CCN(c2cc(C(=O)Nc3cc4nc(-c5cnn(C)c5)ccc4cn3)ccn2)CC1` [Compound 147, N-(2-(1-Methyl-1H-pyrazol-4-yl)-1,6-naphthyridin-7-yl)-2-(4-methylpiperazin-1-yl)isonicotinamide], the half-maximal effective concentration (EC50) at DYRK1A kinase was 0.007 µM; at GSK3β kinase it was more than 10 µM; in assay [1] (Mus musculus, BV-2, 5 h), 0.122 µM; in assay [2] (Homo sapiens, SW480, 96 h) it was 0.311 µM; in assay [3] (Homo sapiens, SW480), 0.102 µM; with IL-6 it was 2.2 µM. This molecule yielded an EC50 in assay [4] (Homo sapiens, Fibroblast, 96 h) of 0.41 µM.

For `CN1CCN(c2ccc(C(=O)Nc3cc4nc(-c5cnn(C)c5)ccc4cn3)cn2)CC1` [Compound 151, N-(2-(1-Methyl-1H-pyrazol-4-yl)-1,6-naphthyridin-7-yl)-6-(4-methylpiperazin-1-yl)nicotinamide], the EC50 at DYRK1A kinase is 0.002 µM; on GSK3β kinase, 0.571 µM; in assay [1] (Mus musculus, BV-2, 5 h), 0.088 µM; in assay [2] (Homo sapiens, SW480, 96 h), 3.68 µM; in assay [3] (Homo sapiens, SW480) it was 0.498 µM; in the assay with IL-6, 3.68 µM. Besides, the concentration giving a half-maximal response (EC50) in assay [4] (Homo sapiens, Fibroblast, 96 h) amounted to 0.432 µM.

Regarding `Cn1cc(-c2ccc3cnc(NC(=O)c4ccnc(OC5CCNCC5)c4)cc3n2)cn1` [Compound 153, N-(2-(1-Methyl-1H-pyrazol-4-yl)-1,6-naphthyridin-7-yl)-2-(piperidin-4-yloxy)isonicotinamide], the EC50 on DYRK1A kinase amounted to 0.004 µM; at GSK3β kinase it was 6 µM; in assay [1] (Mus musculus, BV-2, 5 h), 0.159 µM; in assay [2] (Homo sapiens, SW480, 96 h), 0.353 µM; in assay [3] (Homo sapiens, SW480), 0.111 µM; with IL-6, 2.07 µM. Further, in assay [4] (Homo sapiens, Fibroblast, 96 h), the concentration giving a half-maximal response (EC50) stood at 1.1 µM.

In the case of `CN(C)CCNc1cc(C(=O)Nc2cc3nc(-c4cnn(C)c4)ccc3cn2)ccn1` [Compound 164, 2-((2-(Dimethylamino)ethyl)amino)-N-(2-(1-methyl-1H-pyrazol-4-yl)-1,6-naphthyridin-7-yl)isonicotinamide], the EC50 was 0.006 µM on DYRK1A kinase; 4.01 µM on GSK3β kinase; 0.165 µM in assay [1] (Mus musculus, BV-2, 5 h); 2.77 µM in assay [2] (Homo sapiens, SW480, 96 h); 0.585 µM in assay [3] (Homo sapiens, SW480); more than 10 µM with IL-6. Besides, in assay [4] (Homo sapiens, Fibroblast, 96 h), the EC50 was determined as 0.717 µM. Further, the inhibition at 10 µM with IL-6 came out at 17.6%.

`CN(C)Cc1ccc(C(=O)Nc2cc3nc(-c4cnn(C)c4)ccc3cn2)cc1` [Compound 170, 4-((Dimethylamino)methyl)-N-(2-(1-methyl-1H-pyrazol-4-yl)-1,6-naphthyridin-7-yl)benzamide]: the EC50 on DYRK1A kinase came out at 0.006 µM; on GSK3β kinase, 1.87 µM; in assay [1] (Mus musculus, BV-2, 5 h), 0.055 µM; in assay [2] (Homo sapiens, SW480, 96 h), 3.37 µM; in assay [3] (Homo sapiens, SW480), 0.396 µM; in the assay with IL-6, 8.09 µM. For the same molecule, it took 1.3 µM to reach a half-maximal effect in assay [4] (Homo sapiens, Fibroblast, 96 h) (EC50).

On to `O=C(Nc1cc2cc(-c3cncc(NCC4(F)CNC4)n3)cnc2cn1)C1CC1` [Compound 3591, N-(3-(6-(((3-Fluoroazetidin-3-yl)methyl)amino)pyrazin-2-yl)-1,7-naphthyridin-6-yl)cyclopropanecarboxamide], for which the concentration giving a half-maximal response (EC50) was 0.01 µM at DYRK1A kinase; 2.27 µM at GSK3β kinase; 2.4 µM in assay [1] (Mus musculus, BV-2, 5 h); more than 10 µM in assay [2] (Homo sapiens, SW480, 96 h); more than 10 µM in assay [3] (Homo sapiens, SW480); more than 10 µM with IL-6. The inhibition at 10 µM in assay [2] (Homo sapiens) stood at 6.1%; in assay [3] (Homo sapiens), 1.3%; in the assay with IL-6, 4.4%.

As for `Cn1nnnc1-c1ccc2cnc(NC(=O)C3CCN(CCC(F)(F)F)CC3)nc2c1` [Compound 4574, N-(7-(1-Methyl-1H-tetrazol-5-yl)quinazolin-2-yl)-1-(3,3,3-trifluoropropyl) piperidine-4-carboxamide], the EC50 at DYRK1A kinase was 1.41 µM; at GSK3β kinase, 0.665 µM; in assay [2] (Homo sapiens, SW480, 96 h), more than 10 µM; in assay [3] (Homo sapiens, SW480) it was 3.87 µM; in the assay on IL-6 it was more than 10 µM; in assay [4] (Homo sapiens, Fibroblast, 96 h), more than 10 µM. The inhibition at 10 µM in assay [2] (Homo sapiens) was 20.2%; in the assay on IL-6 it was 5.7%; in assay [4] (Homo sapiens, Fibroblast) it was 32.8%.

As for `Cc1ncc(-c2ccc3cnc(NC(=O)C(C)N4CCCCC4)nc3c2)n1C` (stereo not shown) [Compound 4576, N-(7-(1,2-Dimethyl-1H-imidazol-5-yl)quinazolin-2-yl)-2-(piperidin-1-yl) propanamide], the concentration giving a half-maximal response (EC50) at DYRK1A kinase was 0.675 µM; at GSK3β kinase, 0.346 µM; in assay [2] (Homo sapiens, SW480, 96 h), more than 10 µM; in assay [3] (Homo sapiens, SW480), more than 10 µM; in the assay with IL-6, more than 10 µM; in assay [4] (Homo sapiens, Fibroblast, 96 h), more than 10 µM. Further, the inhibition at 10 µM was 22.1% in assay [2] (Homo sapiens); 35.3% in assay [3] (Homo sapiens); 0% with IL-6; 38.3% in assay [4] (Homo sapiens, Fibroblast).

As to `CC(C)Oc1ccc(C(=O)Nc2ncc3ccc(-c4cnc5n4CCN(C)C5)cc3n2)cc1` [Compound 4577, 4-Isopropoxy-N-(7-(7-methyl-5,6,7,8-tetrahydroimidazo[1,2-a]pyrazin-3-yl)quinazolin-2-yl)benzamide], the concentration giving a half-maximal response (EC50) was 0.175 µM on DYRK1A kinase; more than 10 µM on GSK3β kinase; more than 10 µM in assay [2] (Homo sapiens, SW480, 96 h); more than 10 µM in assay [3] (Homo sapiens, SW480); more than 10 µM in the assay on IL-6; more than 10 µM in assay [4] (Homo sapiens, Fibroblast, 96 h). Moreover, the inhibition at 10 µM in assay [2] (Homo sapiens) was 19.7%; in assay [3] (Homo sapiens), 28.9%; in the assay with IL-6 it was 2.6%; in assay [4] (Homo sapiens, Fibroblast), 42.7%.

With `N#CC(c1cncc(-c2ccc3cnc(NC(=O)C4CC4)nc3c2)c1)N1CCC(O)CC1` (stereo not shown) [Compound 4594, N-(7-(5-(Cyano(4-hydroxypiperidin-1-yl)methyl)pyridin-3-yl)quinazolin-2-yl)cyclopropanecarboxamide], the concentration giving a half-maximal response (EC50) was 0.035 µM on DYRK1A kinase; 0.528 µM on GSK3β kinase; more than 10 µM in assay [2] (Homo sapiens, SW480, 96 h); more than 10 µM in assay [3] (Homo sapiens, SW480); more than 10 µM in the assay on IL-6; 3.25 µM in assay [4] (Homo sapiens, Fibroblast, 96 h). Also, the inhibition at 10 µM came to 15% in assay [2] (Homo sapiens), 35.6% in assay [3] (Homo sapiens) and 2.4% in the assay with IL-6.

Turning to `CN1CC(COc2cncc(-c3ccc4cnc(NC(=O)c5ccc(F)cc5)nc4c3)n2)C1` [Compound 4595, 4-Fluoro-N-(7-(6-((1-methylazetidin-3-yl)methoxy)pyrazin-2-yl)quinazolin-2-yl)benzamide], the EC50 on DYRK1A kinase was 0.038 µM; at GSK3β kinase, more than 10 µM; in assay [2] (Homo sapiens, SW480, 96 h), 4.57 µM; in assay [3] (Homo sapiens, SW480), more than 10 µM; in the assay on IL-6, more than 10 µM; in assay [4] (Homo sapiens, Fibroblast, 96 h) it was more than 10 µM. Besides, the inhibition at 10 µM in assay [3] (Homo sapiens) worked out at 20.1%; with IL-6, 5.3%; in assay [4] (Homo sapiens, Fibroblast) it was 2.8%.

Take `CN1CCN(c2ncc(C(=O)Nc3cc4cc(-c5cnn(C)c5)ncc4cn3)s2)CC1` [Compound 4602, N-(6-(1-Methyl-1H-pyrazol-4-yl)-2,7-naphthyridin-3-yl)-2-(4-methylpiperazin-1-yl)thiazole-5-carboxamide]: the EC50 in assay [1] (BV-2 cells, LPS 250 ng/mL 5 hours, compounds overnight, 10 μM to […], cytokine not named in Table 9) was 2.9 µM; in assay [2] (SW480 cells, four days, CellTiter-Glo) it was more than 10 µM; in assay [3] (SW480 Sp5-Luc reporter cells, 36 to 48 hours), more than 10 µM; in assay [4] (LL29 fibroblasts from IPF patients, TGF-β1 20 ng/mL, 4 days, curves from 10 μM to 0.94 nM), more than 10 µM. For the same molecule, the “percent inhibition at 10 μM” value in assay [2] (at 10 μM, given for EC50 of >10 μM, SW480 cell viability) is recorded as 26.1%; in assay [3] (at 10 μM, given for EC50 of >10 μM, SW480 Sp5-Luc reporter), 10.9%. Besides, in assay [4] (LL29 fibroblasts, TGF-β1, given beside >10 μM, meaning not given), the “percentage in parentheses after EC50 >10” value is recorded as 14.3%.
